# Data as given in EP3207939A2, “USE OF A PROTEIN/PEPTIDE COMPLEX FOR TREATING AND PREVENTING ATHEROSCLEROSIS, METHOD FOR TREATING AND PREVENTING ATHEROSCLEROSIS (VARIANTS)” (Diamondzlite Limited, priority 2014, dated 2016).
# Like-named read-outs stand apart in the source and are kept apart here.
# Key:
# [1] = cited from earlier work
# [2] = system: atherosclerotic cells of the intima of human's aorta; experiment: Intracellular cholesterol and lipid content in cultured atherosclerotic cells, in vitro model
# [3] = system: cultured atherosclerotic cells; experiment: Inclusion of [3H] thymidine (proliferative activity) in cultured atherosclerotic cells; format: cell-based, human
# Procedure: For research on the impact of the original PPC and PPPC with the conditional name "Cellex" (hereinafter - Cellex, as a modifier and activator of biological reactions) on the level of reduction of the atherogenic potential of blood serum of patients having atherosclerosis according to the known method, a primary culture of subendothelial cells of the human's aorta was obtained from various sections of the intima of the thoracic aorta of men and women aged 40-65 years within 1.5-3 hours after sudden death, which differed by the degree of atherosclerotic disease, then it was treated by collagenase, and the cells were cultured.
# [4] = system: cells extracted from normal or damaged sections of the intima of human's aorta; experiment: Determination of the synthesis of collagen ([3H]-proline inclusion); format: cell-based; conditions: Verapamil 5 x 10^-5 M; control 2500 ± 102 dpm/103
# Procedure: Cells extracted from normal or damaged sections of the intima of human's aorta were incubated for 24 hours in the presence of 5 µCi/ml [3H]-proline. Upon completion of incubation, inclusion of marked proline into the culture medium fraction treated by collagenase was determined by the method of Peterkofsky and Diegelmann. Table 1. Influence of lipostabil, lovastatin and cellex on the cholesterol content in atherosclerotic cells of the intima of human's aorta in vitro.
# [5] = system: primary culture of atherosclerotic cells; experiment: Ex vivo model: volunteers' blood serum added to primary culture of atherosclerotic cells, intracellular cholesterol; format: cell-based, human
# Procedure: For the ex vivo model, blood was taken from volunteers immediately prior to Cellex intake and after the corresponding intervals after the intranasal intake (after 2, 4, and 6 hours for screening studies and assessment of the short-term effect, as well as after 4, 8, 12, and 24 hours for the assessment of duration of the effect).
# Volunteers took PPC - Cellex at once in the form of an intranasal spray in complex with polynucleotides in the form of sodium salts of DNA - PPPC, 400 µg of a 0.1% solution (per total protein and DNA) - 2 injections of 200 µg in each nasal duct in the morning, the drug for comparison was Verapamil in the dose of 400 mg; the control group received intranasally 50 mM of glycine-phosphate buffer solution with the same pH (7.8) and with the same regimen. Blood was taken prior to drug or control intake (time "0") and 1, 2, 4, and 8 hours after the intake. Samples were prepared from the bloodserum, and serum samples were added to the primary culture of atherosclerotic cells. […] Consequently, starting from the 1 st hour after single intake of the claimed drug and from the 2nd hour after Verapamil intake, blood serum acquires antiatherosclerotic properties manifested in the contribution to reverse cholesterol transport from atherosclerotic cells. Antiatherosclerotic properties of serum are preserved for at least 12 hours after Verapamil intake and up to 18 hours after intake of the claimed drug. Table 5. Comparative table of the antiatherogenic action of Cellex and Verapamil in the ex vivo model.
# [6] = rabbits, 28 days, food with 1% cholesterol, 0.6 g of beta-carotene per 1 kg of food; cited from earlier work
# [7] = hypersensitive rats, 125-500 mg per 1 kg of food with cholesterol-rich food, 44 days; cited from earlier work
# [8] = guinea pigs, 12 weeks, cited from earlier work
# [9] = smoking people, 20 mg/day, 14 weeks; cited from earlier work
# [10] = rabbits, single peroral administration; cited from earlier work
# [11] = long-term administration, daily dose of 3 g
smiles,measurement,setting,value
N[C@H](Cc1cc(I)c(Oc2cc(I)c(O)c(I)c2)c(I)c1)C(=O)O [D-thyroxine],reduction of the concentration of low-density lipoproteins,[1]; daily dose of 4-8 mg,20%
CC[C@H](C)C(=O)O[C@H]1C[C@@H](C)C=C2C=C[C@H](C)[C@H](CC[C@@H]3C[C@@H](O)CC(=O)O3)[C@H]21 [Lovastatin],Content of intracellular cholesterol,"[2]; concentration 10^-6 M, control 105 ± 11, average of three independent experiments",110 ± 10 µg/mg
COc1ccc(CCN(C)CCCC(C#N)(c2ccc(OC)c(OC)c2)C(C)C)cc1OC (centres unmarked) [Verapamil],Inclusion of [3H] thymidine,[3]; Verapamil 10^-4 M,20 ± 2 % of control
same,Inclusion of [3H] thymidine,[3]; Verapamil 10^-5 M,34 ± 2 % of control
same,Inclusion of [3H] thymidine,[3]; Verapamil 10^-6 M,50 ± 2 % of control
same,Inclusion of [3H] thymidine,[3]; Verapamil 10^-7 M,86 ± 7 % of control
same,Synthesis of collagen,[4],74 ± 5 % of control
same,Antiatherosclerotic properties of serum are preserved,[5]; after single intake,at least 12 hours
same,"blood serum acquires antiatherosclerotic properties, starting from",[5]; after single intake,2 h
same,Intracellular cholesterol content,"[5]; serum 1 hr after Verapamil 400 mg, control 221 ± 13 µg cholesterol per 1 mg cellular protein",97 ± 10 % of control
same,Intracellular cholesterol content,[5]; serum 2 hr after Verapamil 400 mg,84 ± 6 % of control
same,Intracellular cholesterol content,[5]; serum 4 hr after Verapamil 400 mg,77 ± 8 % of control
same,Intracellular cholesterol content,[5]; serum 8 hr after Verapamil 400 mg,85 ± 4 % of control
same,Intracellular cholesterol content,[5]; serum 12 hr after Verapamil 400 mg,90 ± 6 % of control
same,Intracellular cholesterol content,[5]; serum 18 hr after Verapamil 400 mg,104 ± 4 % of control
same,Triglycerides,"[2]; Verapamil 5 x 10^-5 M, control 12.1 ± 1.7 µg/105",76 ± 2 % of control
same,Free cholesterol,"[2]; Verapamil 5 x 10^-5 M, control 46.8 ± 5.3 µg/105",90 ± 8 % of control
same,Phospholipids,"[2]; Verapamil 5 x 10^-5 M, control 71.4 ± 10.9 µg/105",61 ± 8 % of control
same,Total cholesterol,[2]; Verapamil 10^-5 M,61 ± 4 % of control
same,Total cholesterol,[2]; Verapamil 10^-6 M,82 ± 8 % of control
same,Total cholesterol,"[2]; Verapamil 10^-7 M, control 57.4 ± 1.2 µg/105",104 ± 5 % of control
CC1=C(/C=C/C(C)=C/C=C/C(C)=C/C=C/C=C(C)/C=C/C=C(C)/C=C/C2=C(C)CCCC2(C)C)C(C)(C)CCC1 [beta-carotene],LDL resistance to oxidation,[6],no impact of beta-carotene on LDL resistance to oxidation was detected
same,elasticity of endothelial vessels,[6],elasticity of endothelial vessels was preserved
same,cholesterol and triglyceride levels in blood serum,[7],dose-dependent reduction
same,sizes of sclerotic clots in aorta,[8]; 50 mg of beta-carotene/100 g of food,significant reduction
same,cholesterol and triglyceride levels in blood serum,[8]; daily 0.2% cholesterol and 15-30 mg of beta-carotene,no verifiable differences
same,beta-carotene level in blood serum increased,[9],15 times
same,level of lipoproteins in blood serum,[9],no visible effect was identified
CC(C)=CCC/C(C)=C/C=C/C(C)=C/C=C/C(C)=C/C=C/C=C(C)/C=C/C=C(C)/C=C/C=C(\C)CCC=C(C)C [lycopene],return of blood serum concentration to the initial level,[10],24 h
same,time of maximum concentration in blood serum,[10],8 h
O=C(O)c1cccnc1 [nicotinic acid],cholesterol level in blood serum lowered,[1]; [11],10%
same,triglycerides in blood serum lowered,[1]; [11],20%
